Data as given in patent US8546391B2, “Thiadiazole and oxadiazole derivatives, preparation thereof and therapeutic use thereof” (Sanofi, priority 2009, dated 2013).

melting point | SMILES
298 °C | CC(C)(C)c1nnc(NC(=O)c2ccc(C3CCC(CC(=O)O)CC3)cc2)s1 (stereo not shown) [Compound 14, {4-[4-(5-tert-butyl[1,3,4]thiadiazol-2-ylcarbamoyl)phenyl]cyclohexyl}acetic acid]
274 °C | O=C(O)CC1CCC(c2ccc(C(=O)Nc3nnc(C4CCCC4)s3)cc2)CC1 (stereo not shown) [Compound 16, {4-[4-(5-cyclopentyl[1,3,4]thiadiazol-2-ylcarbamoyl)phenyl]cyclohexyl}acetic acid]
268 °C | O=C(O)CC1CCC(c2ccc(C(=O)Nc3nnc(CC4CCCC4)s3)cc2)CC1 (stereo not shown) [Compound 17, {4-[4-(5-cyclopentylmethyl[1,3,4]thiadiazol-2-ylcarbamoyl)phenyl]cyclohexyl}acetic acid]
263 °C | CC(C)Cc1nnc(NC(=O)c2ccc(C3CCC(CC(=O)O)CC3)cc2)s1 (stereo not shown) [Compound 19, {4-[4-(5-isobutyl[1,3,4]thiadiazol-2-ylcarbamoyl)phenyl]cyclohexyl}acetic acid]
261 °C | O=C(O)CC1CCC(c2ccc(C(=O)Nc3nnc(COc4ccccc4)s3)cc2)CC1 (stereo not shown) [Compound 22, {4-[4-(5-phenoxymethyl[1,3,4]thiadiazol-2-ylcarbamoyl)phenyl]cyclohexyl}acetic acid]
229 °C | O=C(O)CC1CCC(c2ccc(C(=O)Nc3nnc(CCCc4ccc(F)cc4)s3)cc2)CC1 (stereo not shown) [Compound 23, [4-(4-{5-[3-(4-fluorophenyl)propyl][1,3,4]thiadiazol-2-ylcarbamoyl}phenyl)cyclohexyl]-acetic acid]
275 °C | O=C(O)CC1CCC(c2ccc(C(=O)Nc3nnc(COc4ccc(F)cc4)s3)cc2)CC1 (stereo not shown) [Compound 24, (4-{4-[5-(4-fluorophenoxymethyl)[1,3,4]thiadiazol-2-ylcarbamoyl]phenyl}cyclohexyl)-acetic acid]
255 °C | O=C(O)C=C1CCC(c2ccc(C(=O)Nc3nnc(Cc4ccccc4)s3)cc2)CC1 (stereo not shown) [Compound 42, {4-[4-(5-benzyl[1,3,4]thiadiazol-2-ylcarbamoyl)phenyl]cyclohexylidene}acetic acid]
255 °C | O=C(Nc1nnc(Cc2ccccc2)s1)c1ccc(C2CCC3(CC2)CC3C(=O)O)cc1 (stereo not shown) [Compound 43, 6-[4-(5-benzyl[1.3.4]thiadiazol-2-ylcarbamoyl)phenyl]spiro[2.5]-octane-1-carboxylic acid]
250 to 255 °C | O=C(O)COC1CCC(c2ccc(C(=O)Nc3nnc(Cc4ccccc4)s3)cc2)CC1 (stereo not drawn) [Compound 46, trans-{4-[4-(5-benzyl[1.3.4]thiadiazol-2-ylcarbamoyl)phenyl]cyclohexyloxy}acetic acid]
213 °C | O=C(O)C[C@H]1CC[C@H](c2ccc(C(=O)Nc3nnc(CCN4CCOCC4)s3)cc2)CC1 [Compound 48, trans-(4-{4-[5-(2-morpholin-4-ylethyl)[1,3,4]thiadiazol-2-ylcarbamoyl]phenyl}cyclohexyl)acetic acid]
> 250 °C | O=C(O)C[C@H]1CC[C@H](c2ccc(C(=O)Nc3nnc(N4CCOCC4)s3)cc2)CC1 [Compound 49, trans-{4-[4-(5-morpholin-4-yl[1,3,4]thiadiazol-2-ylcarbamoyl)phenyl]cyclohexyl}acetic acid]
270 °C | O=C(Nc1nnc(CCC2CCCC2)s1)c1ccc(O[C@H]2CC[C@@H](C(=O)O)CC2)cc1 [Compound 57, cis-4-{4-[5-(2-cyclopentylethyl)[1,3,4]thiadiazol-2-ylcarbamoyl]phenoxy}cyclohexanecarboxylic acid]
277 °C | O=C(Nc1nncs1)c1ccc(O[C@H]2CC[C@@H](C(=O)O)CC2)cc1 [Compound 61, cis-4-[4-([1,3,4]thiadiazol-2-ylcarbamoyl)phenoxy]cyclohexanecarboxylic acid]
258 °C | O=C(O)C[C@H]1CC[C@H](c2ccc(C(=O)Nc3nnc([C@H]4C[C@@H](c5ccccc5)C4)s3)cc2)CC1 [Compound 75, trans-(4-{4-[5-(3-phenylcyclobutyl)[1,3,4]thiadiazol-2-ylcarbamoyl]phenyl}cyclohexyl)acetic acid]
291 °C | O=C(O)C[C@H]1CC[C@H](c2ccc(C(=O)Nc3nnc(NC(=O)Cc4ccccc4)s3)cc2)CC1 [Compound 76, {4-[4-(5-phenylacetylamino[1,3,4]thiadiazol-2-ylcarbamoyl)phenyl]cyclohexyl}acetic acid]
294 °C | O=C(O)C[C@H]1CC[C@H](c2ccc(C(=O)Nc3nnc(Cc4cc(F)cc(F)c4)s3)cc2)CC1 [Compound 78, trans-(4-{4-[5-(3,5-difluorobenzyl)[1,3,4]thiadiazol-2-ylcarbamoyl]phenyl}cyclohexyl)-acetic acid]
> 250 °C | O=C(O)C[C@H]1CC[C@H](c2ccc(C(=O)Nc3nnc(CC4CCC(O)CC4)s3)cc2)CC1 (stereo partly drawn) [Compound 79, trans-(4-{4-[5-(4-hydroxycyclohexylmethyl)[1,3,4]thiadiazol-2-ylcarbamoyl]phenyl}-cyclohexyl)acetic acid]
230 to 250 °C | O=C(O)C[C@H]1CC[C@H](Oc2ccc(C(=O)Nc3nnc(Cc4ccccc4)s3)cc2)CC1 [Compound 81, trans-{4-[4-(5-benzyl[1,3,4]thiadiazol-2-ylcarbamoyl)phenoxy]cyclohexyl}acetic acid]
217 to 223 °C | O=C(Nc1nnc(COCC2CCCO2)s1)c1ccc(O[C@H]2CC[C@H](C(=O)O)CC2)cc1 (stereo partly drawn) [Compound 82, trans-4-{4-[5-(tetrahydrofuran-2-ylmethoxymethyl)[1,3,4]thiadiazol-2-ylcarbamoyl]-phenoxy}cyclohexanecarboxylic acid]
240 to 268 °C | O=C(O)C[C@H]1CC[C@H](c2ccc(C(=O)Nc3nnc(CCC(=O)c4ccccc4)s3)cc2)CC1 [Compound 83, trans-(4-{4-[5-(3-oxo-3-phenylpropyl)[1,3,4]thiadiazol-2-ylcarbamoyl]phenyl}cyclohexyl)acetic acid]
239 to 242 °C | O=C(O)C[C@H]1CC[C@H](c2ccc(C(=O)Nc3nnc(CCC(O)c4ccccc4)s3)cc2)CC1 (stereo partly shown) [Compound 84, (4-{4-[5-(3-hydroxy-3-phenylpropyl)[1.3.4]thiadiazol-2-ylcarbamoyl]-phenyl}cyclohexyl)acetic acid]
> 250 °C | O=C(Nc1nnc(-c2cccc(Cl)c2)s1)c1ccc([C@H]2CC[C@H]([C@H]3C[C@@H]3C(=O)O)CC2)cc1 [Compound 85, trans-(1S,2R)-2-(4-{4-[5-(3-chlorophenyl)[1,3,4]thiadiazol-2-ylcarbamoyl]phenyl}cyclohexyl)cyclopropanecarboxylic acid]
335 °C | O=C(O)C[C@H]1CC[C@H](c2ccc(C(=O)Nc3nnc(NC4CCCC4)s3)cc2)CC1 [Compound 92, trans-{4-[4-(5-cyclopentylamino[1,3,4]thiadiazol-2-ylcarbamoyl)phenyl]cyclohexyl}-acetic acid]
281 °C | O=C(C[C@H]1CC[C@H](c2ccc(C(=O)Nc3nnc(Cc4ccccc4)s3)cc2)CC1)NCC1COCCO1 (stereo partly drawn) [Compound 93, trans-N-(5-benzyl[1,3,4]thiadiazol-2-yl)-4-(4-{[([1,4]dioxan-2-ylmethyl)carbamoyl]-methyl}cyclohexyl)benzamide]
